*1 amine or outer side, *2 acyl side, *3 side chain or, on linkers, in order; H or OH if unused. Where a SMILES comes first, the peptide text is derived from it. Primed or numbered codes have the meaning given here. [ ]: non-standard residue; d: D form. The star is where a group is joined. aIle′ = Ile with backbone amide N-amino (hydrazide NNH2), CC[C@H](C)[C@@H](C(=O)[*:2])N(N)[*:1]; aVal = Val with backbone amide N-amino (hydrazide NNH2), CC(C)[C@@H](C(=O)[*:2])N(N)[*:1]; X2 = NN([C@@H](Cc1ccc(O)cc1)C(=O)[*:2])[*:1]; X1 = CC[C@H](C)[C@@H](C(=O)[*:2])N(N)[*:1]; N(NH2)LysNH2 = NCCCC[C@@H](C(N)=O)N(N)*; X3 = CC(C)[C@@H](C(=O)[*:2])N(N)[*:1]
Experiments:
[1] = biological target: T1, Aβ42 (Homo sapiens, UniProt P05067); assay: ThT fluorescence assay with Aβ42; assay type: biochemical
T1 construct: Incubation of synthetic, full-length Aβ42 (40 μM)
T1 sequence (P05067 672-713 limits assumed): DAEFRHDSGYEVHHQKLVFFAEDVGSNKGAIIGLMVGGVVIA
Text: A peptidomimetic approach to tau inhibition offers prospects for achieving selectivity over other amyloids rich in f structure. As a preliminary test, we selected our best-performing aggregation-inhibitory tau mimic, 12, and determined its effect on Aβ42 aggregation in vitro (FIG. 6). […] We similarly observed no effect on aggregation kinetics at any of the concentrations tested.

[2] = biological target: T2, tauP301L fibrils (Homo sapiens, UniProt P10636, P618L); assay: Cellular seeding assay with pre-formed tauP301L fibrils, HEK293 tau-RD(LM)-YFP biosensor cells; assay type: cell-based; settings: for inhibition of propagation of pre-formed tauP301L fibrils: mature fibrils incubated with NAP 36 h before cells; for IC50: pre-formed 0.19 μM tauP301L fibrils treated 36 h with NAP, cells 48 h, three repeated experiments, read-out: fibril capping IC50 in cells; for inhibition of endogenous tau aggregation without co-incubation: without the 36 h inhibitor + mature fibril co-incubation period
T2 construct: we expressed and purified full-length tau featuring a P301L mutation; His6 (N); made in house; host or cells: E. coli BL21 (DE3)
T2 sequence (P10636 1-383 isoform P10636-6 P243L): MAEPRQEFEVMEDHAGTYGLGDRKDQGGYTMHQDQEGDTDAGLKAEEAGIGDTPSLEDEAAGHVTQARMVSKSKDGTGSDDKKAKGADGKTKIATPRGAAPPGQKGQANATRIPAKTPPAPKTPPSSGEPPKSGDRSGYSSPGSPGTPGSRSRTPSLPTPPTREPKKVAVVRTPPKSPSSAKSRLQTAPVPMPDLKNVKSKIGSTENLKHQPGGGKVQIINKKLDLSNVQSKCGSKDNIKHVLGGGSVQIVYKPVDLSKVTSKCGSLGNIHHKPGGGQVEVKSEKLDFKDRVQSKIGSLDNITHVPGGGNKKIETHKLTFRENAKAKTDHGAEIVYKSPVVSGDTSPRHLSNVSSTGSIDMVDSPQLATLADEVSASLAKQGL
Description: Given that pathogenic tau can be secreted from cells in various forms (as oligomers, aggregates, or mature fibrils), we tested whether NAPs could block the cellular transmission of pre-formed fibrils. In this experiment, NAPs were incubated with mature tauP301L fibrils for 36 h prior to treatment of cells expressing tau-RD(LM)-YFP. […] We determined a fibril capping IC50 in cells in the 5 μM range across three repeated experiments (FIG. 4).
We then considered the possibility of di-NAPs 12 and 13 entering cells and inhibiting seeding by interacting with endogenous tau-RD(LM)-YFP, rather than with extracellular pre-formed fibrils. We thus repeated the experiment without the 36 h inhibitor+mature fibril co-incubation period.
For seeding experiments with fibrillar tau, recombinant tauP301L fibrils were prepared as described above (see the section on fibril formation) and sonicated for 3 min prior to use in this assay. In a reaction volume of 40, 8 μL of fibrils was diluted with 31 μL of low-serum Opti-MEM medium and then mixed with 1 μL of NAPs (DMSO concentration was constant across various concentrations of inhibitors). The reaction mixture was then allowed to incubate at 37° C. for 36 h, then mixed with 2 μL of Lipofectamine 2000, and further incubated for 20 min at rt. A 10 μL aliquot of this mixture was then added to 90 μL of cells (15,000 cells/well). Cells were incubated for additional 48 h before taking measurements on a BioTek Cytation 5 cell imager and a microplate reader. 10×10 pictures/well were taken at 20× magnification under an FITC channel, and the punctate counting were carried out using built-in software. […] Every experiment included control wells (no tau, no heparin, and no NAP). All data plots were generated with SigmaPlot. IC50 values were calculated by fitting the data set using the sigmoidal logistic four-parameter equation. Error bars represent standard deviation from technical replicates.

[3] = biological target: T3, tauP301L (Homo sapiens, UniProt P10636, P618L); assay: ThT fluorescence aggregation assay of recombinant tauP301L; assay type: biochemical; settings: 20 μM NAP (2-fold molar excess), 10 μM tauP301L, heparin, 48 h
T3 construct: we expressed and purified full-length tau featuring a P301L mutation; His6 (N); made in house; host or cells: E. coli BL21 (DE3)
T3 sequence (P10636 1-383 isoform P10636-6 P243L): as above
Text: NAP Tau Mimics Inhibit Tau Fibrilization In Vitro. We chose thioflavin T (ThT), an amyloid specific fluorescent dye that binds to β-sheet assemblies, to first evaluate the effect of NAPs on recombinant tau aggregation. For these studies, we expressed and purified full-length tau featuring a P301L mutation frequently observed in patients with frontotemporal dementia and Parkinsonism linked to chromosome 17 (FTDP-17). This missense mutation leads to local structure destabilization around the amyloid-forming region resulting in faster aggregation. Recombinant tauP301L aggregated in the presence of equimolar heparin sulfate (t1/2=6.5±0.4 h) starting with a very short 0.5 h lag phase, followed by a 24 h exponential growth phase. […] Compounds 2 and 4 are mono- and diaminated hexapeptides derived from the R2 PHF6* aggregation-prone sequence, whereas compounds 5, 6, 12, and 13 are all derived from the R3 PHF6 sequence. Several other NAPs had no effect on endpoint ThT fluorescence or lacked consistent inhibition across repeated experiments. […] NaOAc buffer, as evidenced by intense ThT fluorescence after 48 h (FIG. 1B).
Inhibition of full-length tau aggregation by mxyl-NAPs in a ThT assay. […] TauP301L ([…]) aggregated upon incubation with heparin over the course of 2 days, leading to high ThT fluorescence. […] We also synthesized linear and scrambled controls corresponding to each of the NAP inhibitors.
ThT Fluorescence Aggregation Assay. Recombinant tauP301L (10 μM final concentration) and NAP inhibitors (20 μM final concentration) were mixed in an aggregation buffer (100 mM sodium acetate, 10 μM ThT, 10 μM heparin, 2 mM DTT, and 0.5% DMSO, pH: 7.4) in a 96-well clear bottom black plate with a final reaction volume of 200 μL. The plate was then sealed with a clear sealing film and allowed to incubate at 37° C. with continuous shaking in a Biotek Synergy H1 microplate reader. An automated method was used to carry out ThT fluorescence measurements at an excitation wavelength of 444 nm and an emission wavelength of 485 nm at an interval of every 5 min for 48 h. Experiments were carried out in technical replicates on at least 2 different days. Every experiment included control wells that lacked tauP301L, heparin, or NAPs. The average signal from control wells lacking tau was used to subtract the background fluorescence, and the average of the first and last 10 data points of tau+heparin (no inhibitor) wells, after blank subtraction, was used to normalize the data. All data plots were generated with SigmaPlot.

[4] = 24 h, 500 μM
Description: (§1) Human Serum Stability Assay. The stability of NAPs in 25% human serum (MilliporeSigma) was assessed by HPLC. The reaction was started by adding NAPs at a final concentration of 500 μM in pre-warmed serum. The mixture was incubated at 37° C. for 24 h. A 100 μL aliquot of the reaction mixture was taken out at 0, 1, 4, and 24 h and was mixed with an equal volume of 20% trichloroacetic acid and incubated at 4° C. for 15 min to precipitate serum proteins. After centrifugation at 12,000 rpm for 10 min, the supernatant was collected and mixed with an internal standard (1 mg/mL Cbz-Tyr-OH dissolved in MeCN) and stored at −20° C. Samples were then analyzed by LC-MS, and the percentage of peptide remaining was calculated by integrating peaks.

[5] = in vitro; settings: human, serum, intact peptide in 25% human serum
Description: as §1

[6] = tested on: HEK293 cells stably expressing tau-RD (LM)-YFP
Description: MTT cell viability assays were carried out on both HEK293 cells stably expressing tau-RD (LM)-YFP and SH-SY5Y cells. Cells were cultured in the DMEM/F12 complete medium containing 10% FBS, 1% penicillin/streptomycin, and 1% Glutamax in a 75 cm^2 cell culture flask under 5% CO2 at 37° C. Cell viability was determined using the MTT reduction assay. Briefly, 15,000 cells/well were plated in a 96-well tissue culture plate and were allowed to incubate overnight in a CO2 incubator. The medium was aspirated and the NAP inhibitor prepared in complete medium was added at a given final concentration. The plate was then allowed to incubate for additional 48 h in a CO2 incubator, and the medium was aspirated again and replaced with 0.5 mg/mL MTT prepared in complete medium and incubated for additional 3 h. The medium was then replaced with DMSO to dissolve formazan crystals, and the absorbance was measured at 570 nm using a Synergy H1 microplate reader. Each data set was collected from technical replicates on at least 2 different days.

| Molecule | effect on Aβ42 aggregation (ThT) ([1]; 40 μM Aβ42, up to 4-fold molar excess (160 μM)) | effect on Aβ42 aggregation kinetics ([1]; any of the concentrations tested) | selectivity for tau over Aβ42 ([1]; in vitro) | inhibition of propagation of pre-formed tauP301L fibrils [2] | IC50 [2] [µM] | inhibition of endogenous tau aggregation without co-incubation [2] | endpoint ThT fluorescence of tauP301L [3] | intact peptide in 25% human serum [4] [%] | remaining at 24 h, 500 μM [5] [%] | toxicity to HEK293 biosensor cells in seeding experiments [6] |
| --- | --- | --- | --- | --- | --- | --- | --- | --- | --- | --- |
| CC[C@H](C)[C@@H](C(=O)N[C@H](C(=O)N(N)[C@@H](Cc1ccc(O)cc1)C(=O)N[C@@H](CCCCN)C(N)=O)C(C)C)N(N)C(=O)[C@H](CCC(N)=O)NC(=O)[C@@H](NC(C)=O)C(C)C [Compound 12, Ac-Val-Gln-aIle-Val-aTyr-Lys-NH2] (Ac-VQ[X1]V[X2]K-NH2) | no inhibitory effect | no effect | in vitro selectivity for tau over Aβ42 | effectively inhibit propagation in a dose-dependent manner | ~5 | failed to inhibit endogenous tau aggregation | significantly reduce | > 80 | > 83 | did not result in detectable toxicity |
| CC[C@H](C)[C@H](NC(=O)[C@H](CCC(N)=O)NC(=O)[C@@H](NC(C)=O)C(C)C)C(=O)N(N)[C@H](C(=O)N[C@@H](Cc1ccc(O)cc1)C(=O)N(N)[C@@H](CCCCN)C(N)=O)C(C)C [Compound 13, Ac-Val-Gln-Ile-aVal-Tyr-aLys-NH2] (Ac-VQI[X3]Y-{N(NH2)LysNH2}) | – | – | – | effectively inhibit propagation in a dose-dependent manner | ~5 | failed to inhibit endogenous tau aggregation | significantly reduce | > 80 | > 83 | did not result in detectable toxicity |
| Ac-aVal-Gln-aIle-Ile-Asn-Lys-NH2 (Ac-[aVal]Q[aIle′]INK-NH2; SMILES CC[C@H](C)[C@H](NC(=O)[C@H]([C@@H](C)CC)N(N)C(=O)[C@H](CCC(N)=O)NC(=O)[C@H](C(C)C)N(N)C(C)=O)C(=O)N[C@@H](CC(N)=O)C(=O)N[C@@H](CCCCN)C(N)=O) [Compound 4] | – | – | – | generally ineffective | – | – | significantly reduce | – | – | – |

Reference: patent US20230399361A1, “MACROCYCLIC PEPTIDES” (UNIVERSITY OF NOTRE DAME DU LAC, priority 2022, published 2023)
